Measured values taken from patent US20090270452A1, “USE OF SOLUBLE EPOXIDE HYDROLASE INHIBITORS IN THE TREATMENT OF SMOOTH MUSCLE DISORDERS” (Arete Therapeutics, Inc., priority 2008, published 2009).

Experiments:
[1] = system: rat corpus cavernosual strips; conditions: cited from earlier work; for phenylephrine (PE) induced contraction of the cavernosual strips: preincubation with the inhibitor
rat mesenteric arteries [2] = test: Vasorelaxation of rat mesenteric arteries pre-contracted with U46619 or high KCl (myograph); type: cell-based
Description: Additional experiments were performed wherein the pre-contraction of the mesenteric arteries was induced by pre-incubation with either 0.1-1.0 μM U46619 (9,11-dideoxy-9α,11α-methanoepoxy Prostaglandin F2α, […]). The pre-contracted arteries were exposed to 2 μM, 10 μM, 50 μM, 100 μM, 500 μM or 1000 μM of Compound 2 and the level of relaxation was measured by myograph. […] The amount of relaxation induced by Compound 2 was consistent between the vessels pre-contracted by U46619 and high KCl.

[3] = system: rabbit corpus cavernosum smooth muscle strips; test: Relaxation of isolated rabbit corpus cavernosum smooth muscle strips (pressure transducer); type: cell-based; conditions: 10 minutes
Description: A study was performed using freshly isolated rabbit corpus cavernosum smooth muscle strips attached to a pressure transducer in a temperature controlled bath, to evaluate the efficacy of 1-adamantyl-3-(1-(methylsulfonyl)piperidin-4-yl)urea (Compound 1) for the treatment of erectile dysfunction.
The isolated rabbit corpus cavernosum strips were exposed to Compound 1 and/or 14,15-epoxyeicosatrienoic acid (14,15-EET) at 1 μM or 10 μM concentrations for 10 minutes. The relaxation of each strip was measured by pressure transduction. The percent relaxation was determined relative to a control strip incubated with sodium nitroprusside (SNP) of the formula Na2[Fe(CN)5NO].2H2O, SNP is a compound that serves as a source of nitric oxide, a potent peripheral vasodilator. All experimental conditions were done in duplicate.

rat mesenteric arteries [4] = test: Direct vasorelaxation of rat mesenteric arteries with intact or denuded endothelium (wired myograph); type: cell-based
Description: The efficacy of the 1-(1-nicotinoylpiperidin-4-yl)-3-(4-(trifluoromethoxy)phenyl)urea (Compound 2) to directly effect vasorelaxation of rat mesenteric arteries was examined. Rat mesenteric arteries with intact and denuded endothelium were isolated under microscope. Both intact and denuded arteries were exposed to various concentrations of Compound 2 (2 μM, 10 μM, 50 μM, 100 μM, 500 μM or 1000 μM) and the amount of relaxation was measured by a wired myograph.

rat arteries [5] = test: Ach-induced relaxation of isolated arteries from angiotensin II infused rats after in vitro pre-incubation (myograph); type: cell-based; conditions: arteries of ANG II infused rats, pre-incubation with 100 μM compound for 90 minutes; 2% without compound
Description: The efficacy of 1-(1-nicotinoylpiperidin-4-yl)-3-(4-(trifluoromethoxy)phenyl)urea (Compound 2) and 1-adamantyl-3-(1-acetylpiperidin-4-yl)urea (Compound 3) to effect vasorelaxation of rat arteries in vitro and in vivo was examined. Rats were infused with angiotensin II (ANG II) for 4 weeks resulting in a reduced vasorelaxation response to acetylcholine (Ach), a neurotransmitter known to cause endothelium-dependent vasodilation of arteries. Ach-induced relaxation was measured by myograph.

rat arteries [6] = test: Ach-induced relaxation of arteries from angiotensin II rats co-treated in vivo (myograph); conditions: ANG II rats
Description: Additionally, in vivo attenuation of the effects of ANG II by Compound 2 or Compound 3 was examined. Rats were administered ANG II for 2 weeks and co-administered ANG II and either 10 mg of Compound 2 once a day by oral gavage or 30 mg of Compound 3 per day dose in drinking water for 2 weeks. Ach induced relaxation was measured by myograph.

arteries from SHR = test: Aortic relaxation of isolated arteries from spontaneously hypertensive rats (SHR) to Ach or SNP after pre-incubation (myograph); type: cell-based, rat; conditions: pre-incubation with 100 μM compound for 90 minutes

Compound: CCCCCCCCCCCCNC(=O)NC1CCCCC1 [1-cyclodexy-3-dodecyl-urea]
- phenylephrine (PE) induced contraction of the cavernosual strips [1]: attenuated

Compound: CCCCCC1OC1CC=CCC=CCC=CCCCC(=O)O (stereo not shown) [14,15-EET, 14,15-epoxyeicosatrienoic acid, reference compound]
- EET-induced vasorelaxation in vessels precontracted with high KCl (rat mesenteric arteries [2]; pre-contracted with high KCl (100 mM per FIG. 3A)): completely blocked
- relaxation of corpus cavernosum strip ([3]; 14,15-EET alone, 1 μM): no effect
- relaxation of corpus cavernosum strip ([3]; 14,15-EET alone, 10 μM, in one of the two experiments): 7%

Compound: CS(=O)(=O)N1CCC(NC(=O)NC23CC4CC(CC(C4)C2)C3)CC1 [Compound 1, 1-adamantyl-3-(1-(methylsulfonyl)piperidin-4-yl)urea]
- percent relaxation of corpus cavernosum strip ([3]; 1 μM of both Compound 1 and 14,15-EET, relative to SNP control strip): 15%
- percent relaxation of corpus cavernosum strip ([3]; 10 μM of both Compound 1 and 14,15-EET, relative to SNP control strip): 22%
- relaxation of corpus cavernosum strip ([3]; Compound 1 alone, 1 μM or 10 μM, relative to SNP control strip): did not induce relaxation

Compound: O=C(Nc1ccc(OC(F)(F)F)cc1)NC1CCN(C(=O)c2cccnc2)CC1 [Compound 2, 1-(1-nicotinoylpiperidin-4-yl)-3-(4-(trifluoromethoxy)phenyl)urea]
- percent relaxation of mesenteric arteries (rat mesenteric arteries [4]; 10 μM of compound): 5%
- percent relaxation of mesenteric arteries (rat mesenteric arteries [4]; 100 μM of compound): 60%
- relaxation of pre-contracted mesenteric arteries (rat mesenteric arteries [2]; 2-1000 μM, pre-contracted by 0.1-1.0 μM U46619 or 127 mM KCl, consistent between both): dose dependent effect
- percent relaxation with 100 nM Ach (rat arteries [5]): 30%
- response to Ach-induced relaxation after in vivo co-administration (rat arteries [6]; 10 mg once a day by oral gavage for 2 weeks): significantly improved dose dependent response to Ach

Compound: CC(=O)N1CCC(NC(=O)NC23CC4CC(CC(C4)C2)C3)CC1 [Compound 3, 1-adamantyl-3-(1-acetylpiperidin-4-yl)urea]
- percent relaxation with 100 nM Ach (rat arteries [5]): 70%
- response to Ach-induced relaxation after in vivo co-administration (rat arteries [6]; 30 mg per day dose in drinking water for 2 weeks): significantly improved dose dependent response to Ach
- percent relaxation induced by 10 μM Ach (arteries from SHR; vehicle 65%): 90%
- percent relaxation induced by 100 nM SNP (arteries from SHR; vehicle 70%): 95%

Compound: CCCCc1ccc(N=CN)c(C)c1 [N′-(4-dutyl-2-methyl-phenyl)-foramidine]
- phenylephrine (PE) induced contraction of the cavernosual strips [1]: attenuated

Compound: epoxyeicosatrienoic acids [EETs]
- EC50 ([1]; normal, old and diabetic rat corpus cavernosual strips, read-out: apparent EC50 of relaxation): 10 nM
- Emax of relaxation ([1]; normal, old and diabetic rat strips, depending on the system): 30-70%
